Data on 13 molecules can be found in article PMC10770970, “Synthesis and cytotoxic activity evaluation of novel imidazopyridine carbohydrazide derivatives” (BMC Chemistry, 2024).

The subject of data set [1] is MCF-7 (human breast adenocarcinoma) cells. The data set is described as follows: MTT reduction cytotoxicity assay, MCF-7. Format: cell-based. The following applies: ± S.E.M., max tested 100 µM. The method, then:
(§1) All synthesized compounds were evaluated for cytotoxic activity against three human cancer cell lines including MCF-7, HT-29, and K562 by employing an MTT (3-(4,5-dimethylthiazol-2-yl)-2,5-diphenyltetrazolium bromide) assay. […] Cisplatin and doxorubicin were tested as standard chemotherapeutic reference agents.
(§2) MCF-7 (human breast adenocarcinoma), HT-29 (Human colorectal adenocarcinoma), K562 (human chronic myelogenous leukemia), and Vero (kidney epithelial cells of African green monkey) cells were obtained from Iranian Biological Resource Center, Tehran, Iran. MCF-7, K562, and Vero cells were cultured in RPMI 1640 medium containing 10% heat-inactivated fetal bovine serum (FBS) and 1% penicillin/streptomycin, while HT-29 cells were grown in DMEM low glucose, containing 20% heat-inactivated FBS and 1% penicillin/streptomycin. All cells were grown in monolayer culture at 37 °C in a humidified incubator with 5% CO2.
(§3) Assessment of cell viability after exposure of cancer and non-cancer cells to synthetic compounds was performed using the MTT (3-(4,5-dimethylthiazol-2-yl)-2,5-diphenyltetrazolium bromide) reduction assay. Cells were plated in 96-well microplates at densities of 30,000 cells/mL (100 μL in each well). The plates were incubated overnight at 37 °C and then 50 μL of the growth medium was replaced with the same amount of fresh medium containing 3–4 different concentrations of synthesized analogs at the final concentrations of 10–100 µM. Test compounds were initially dissolved in DMSO and then diluted in the growth medium. The upper limit of DMSO concentration in each well was 0.5%. After 72 h of incubation, 80 μL of the solution in each well was substituted with the same quantity of the growth medium comprising of MTT solution at 0.5 mg/mL. Cells were subsequently incubated at 37 °C for 4 h and then 80 μL of the solution in each well was removed. The introduction of DMSO (200 μL) to each well caused the formazan crystals formed inside the viable cells to dissolve. The process lasted 1.5 h (1 h of incubation and 30 min of shaking). The optical absorbance of the final solution was quantified at the wavelength of 570 nm using a microplate reader. IC50 values for all derivatives were calculated using CurveExpert 1.34 software.
(Tetrazolium assays rely on reduction of a dye to a coloured formazan, in cell work by metabolically active cells.)

In data set [2] the test system is HT-29 (Human colorectal adenocarcinoma) cells. Nature of the data set: MTT reduction cytotoxicity assay, HT-29. Format: cell-based. Conditions: ± S.E.M., max tested 100 µM. The method, then: as §1, §2, §3
Data set [3] relates to K562 (human chronic myelogenous leukemia) cells. Nature of the data set: MTT reduction cytotoxicity assay, K562. Format: cell-based. The following applies: ± S.E.M., max tested 100 µM. The method, then: as §1, §2, §3
The test system of data set [4] is Vero (kidney epithelial cells of African green monkey) cells. The data set is described as follows: MTT reduction cytotoxicity assay, Vero non-cancer cells. The following applies: 72 h, ± S.E.M., max tested 100 µM. Format: cell-based. The procedure: as §1, §2, §3

The term IC50 denotes the midpoint of a concentration-inhibition curve. A lower IC50 goes with greater potency in that assay. `N.N.[Cl][Pt][Cl]` [Cisplatin, reference compound]: the IC50 in data set [1] (72 h) was determined as 25.9 ± 6.9 µM; in data set [2] (72 h), 22.4 ± 5.8 µM; in data set [3] (72 h), 9.4 ± 0.5 µM; in data set [4], 10.6 ± 1.3 µM.

Consider `NNC(=O)c1cn2ccccc2n1` [Compound 5, imidazo[1,2-a]pyridine-2-carbohydrazide], for which the IC50 in data set [1] (Homo sapiens, MCF7, 72 h) is more than 100 µM; in data set [2] (Homo sapiens, HT-29, 72 h), more than 100 µM; in data set [3] (Homo sapiens, K562, 72 h), more than 100 µM.

The term melting point denotes the temperature of the solid-liquid transition. `O=C(NN=Cc1ccccc1)c1cn2ccccc2n1` [Compound 7a, N´-benzylidene imidazo[1,2-a]pyridine-2-carbohydrazide] yielded a melting point of 257 to 259 °C. In data set [1] (Homo sapiens, MCF7, 72 h), the half-maximal inhibitory concentration (IC50) was more than 100 µM. Moreover, in data set [2] (Homo sapiens, HT-29, 72 h), the IC50 was more than 100 µM. Also, the IC50 in data set [3] (Homo sapiens, K562, 72 h) is more than 100 µM.

Molecule `O=C(NN=Cc1ccc(F)cc1)c1cn2ccccc2n1` [Compound 7b, N´-(4-fluorobenzylidene)imidazo[1,2-a]pyridine-2-carbohydrazide] came in with a melting point of 234 to 236 °C. The molecule further displayed an IC50 in data set [1] (Homo sapiens, MCF7, 72 h) of more than 100 µM. The same molecule came in with a concentration for half-maximal inhibition (IC50) in data set [2] (Homo sapiens, HT-29, 72 h) of more than 100 µM. In data set [3] (Homo sapiens, K562, 72 h), this molecule showed an IC50 of more than 100 µM.

`O=C(NN=Cc1ccc(Cl)cc1)c1cn2ccccc2n1` [Compound 7c, N´-(4-chlorobenzylidene)imidazo[1,2-a]pyridine-2-carbohydrazide] had a melting point of 226 to 228 °C. Moreover, in data set [1] (Homo sapiens, MCF7, 72 h), the IC50 was 64.8 ± 11.8 µM. In data set [2] (Homo sapiens, HT-29, 72 h), this molecule gave an IC50 of 85.4 ± 10.3 µM. This molecule also had an IC50 in data set [3] (Homo sapiens, K562, 72 h) of more than 100 µM. For the same molecule, in data set [4] (Chlorocebus sabaeus, Vero), the IC50 stood at 65.6 ± 4.5 µM.

The molecule `Cc1ccc(C=NNC(=O)c2cn3ccccc3n2)cc1` [Compound 7e, N´-(4-methylbenzylidene)imidazo[1,2-a]pyridine-2-carbohydrazide] registered a melting point of 180 to 182 °C. The molecule further came in with an IC50 in data set [1] (Homo sapiens, MCF7, 72 h) of more than 100 µM. Further, in data set [2] (Homo sapiens, HT-29, 72 h), the IC50 is more than 100 µM. The same molecule registered an IC50 in data set [3] (Homo sapiens, K562, 72 h) of more than 100 µM.

On to `C#CCNNC(=O)c1cn2ccccc2n1` [Compound 9, N´-(Prop-2-yn-1-yl) imidazo[1,2-a]pyridine-2-carbohydrazide], for which the melting point fell in the range of 142 to 144 °C. The molecule also showed an IC50 in data set [1] (Homo sapiens, MCF7, 72 h) of 70.1 ± 5.3 µM. In addition, the IC50 in data set [2] (Homo sapiens, HT-29, 72 h) came out at 21.4 ± 1.9 µM. For the same molecule, half-maximal inhibition in data set [3] (Homo sapiens, K562, 72 h) (IC50) required 23.7 ± 2.3 µM. In addition, the IC50 in data set [4] (Chlorocebus sabaeus, Vero) was determined as 73 ± 9.9 µM.

For `O=C(NNCc1cn(Cc2ccccc2)nn1)c1cn2ccccc2n1` [Compound 11a, N´-((1-benzyl-1H-1,2,3-triazol-4-yl)methyl)imidazo[1,2-a]pyridine-2-carbohydrazide], the IC50 in data set [1] (Homo sapiens, MCF7, 72 h) is 40.3 ± 2.9 µM; in data set [2] (Homo sapiens, HT-29, 72 h), 61.2 ± 6.3 µM; in data set [3] (Homo sapiens, K562, 72 h), more than 100 µM; in data set [4] (Chlorocebus sabaeus, Vero), more than 100 µM. Further, the “IC50 Vero” value in data set [4] is “completely inactive”.

In turn, `O=C(NNCc1cn(Cc2ccc(F)cc2)nn1)c1cn2ccccc2n1` [Compound 11b, N´-((1-(4-fluorobenzyl)-1H-1,2,3-triazol-4-yl)methyl)imidazo[1,2-a]pyridine-carbohydrazide] had a melting point of 205 to 207 °C. Moreover, in data set [1] (Homo sapiens, MCF7, 72 h), the IC50 is more than 100 µM. Besides, the IC50 in data set [2] (Homo sapiens, HT-29, 72 h) is more than 100 µM. Further, in data set [3] (Homo sapiens, K562, 72 h), the IC50 was more than 100 µM.

Regarding `O=C(NNCc1cn(Cc2ccc(Cl)cc2)nn1)c1cn2ccccc2n1` [Compound 11c, N´-((1-(4-chlorobenzyl)-1H-1,2,3-triazol-4-yl)methyl)imidazo[1,2-a]pyridine-carbohydrazide], the melting point was 193 to 195 °C. Besides, the IC50 in data set [1] (Homo sapiens, MCF7, 72 h) was more than 100 µM. In addition, the IC50 in data set [2] (Homo sapiens, HT-29, 72 h) was more than 100 µM. In data set [3] (Homo sapiens, K562, 72 h), the IC50 was more than 100 µM.

`O=C(NNCc1cn(Cc2ccc(Br)cc2)nn1)c1cn2ccccc2n1` [Compound 11d, N´-((1-(4-bromobenzyl)-1H-1,2,3-triazol-4-yl)methyl)imidazo[1,2-a]pyridine-carbohydrazide]: the melting point was 186 to 188 °C. The “IC50 MCF-7” value in data set [1] (72 h) is recorded as “no activity”. The molecule also showed an IC50 in data set [1] (Homo sapiens, MCF7, 72 h) of more than 100 µM. Also, the IC50 in data set [2] (72 h) amounted to 83.8 ± 13.1 µM. Besides, in data set [2] (Homo sapiens, HT-29, 72 h), the midpoint of inhibition, the IC50, lay at 83.9 µM. Also, the “IC50 K562” value in data set [3] (72 h) was “no activity”. The molecule further yielded an IC50 in data set [3] (Homo sapiens, K562, 72 h) of more than 100 µM. For the same molecule, the “IC50 Vero” value in data set [4] was “completely inactive”. This molecule also gave an IC50 in data set [4] (Chlorocebus sabaeus, Vero) of more than 100 µM.

In the case of `Cc1ccc(Cn2cc(CNNC(=O)c3cn4ccccc4n3)nn2)cc1` [Compound 11e, N´-((1-(4-methylbenzyl)-1H-1,2,3-triazol-4-yl)methyl)imidazo[1,2-a]pyridine-carbohydrazide], the melting point lay within 140 to 142 °C. The same molecule displayed an IC50 in data set [1] (Homo sapiens, MCF7, 72 h) of more than 100 µM. Also, in data set [2] (Homo sapiens, HT-29, 72 h), the 50% inhibitory concentration (IC50) is more than 100 µM. In data set [3] (Homo sapiens, K562, 72 h), the IC50 is more than 100 µM.

The molecule `COc1cccc2c1C(=O)c1c(O)c3c(c(O)c1C2=O)C[C@@](O)(C(=O)CO)C[C@@H]3O[C@H]1C[C@H](N)[C@H](O)[C@H](C)O1` [Doxorubicin, reference compound] yielded an IC50 in data set [4] (Chlorocebus sabaeus, Vero) of 2.6 ± 0.3 µM.
